Results from patent US20150352207A1, “USE OF ANTIBODIES AGAINST ICAM-1 IN COMBINATION WITH AN ANTI CANCER DRUG IN THE TREATMENT OF PATIENTS” (BIOINVENT INTERNATIONAL AB, priority 2013, published 2015).

Experiments:
[1] = system: ARH-77 cells; test: Disseminated scid/ARH-77 model of multiple myeloma; format: in vivo, scid mice; conditions: i.v. on Days 7, 10, 13, 16; antibody 2 mg/kg, bortezomib 0.5 mg/kg; vs control treatment
Experimental: ARH-77 cells or RPMI-8226 were injected intravenously into the SCID mice. (A) ARH-77 model. Animals received intravenous injections with antibody at 2 mg/kg or bortezomib (Velcade) at 0.5 mg/kg on Days 7, 10, 13, and 16 (as indicated by arrows in the graph). (B) RPMI-8226-model. B11 or control mAb was administered i.v at 2 mg/kg, twice weekly for 8 weeks, bortezomid, at 1 mg/kg, once weekly for 8 weeks, lenalidomide p.o with 2 mg/kg for 2 cycles consisting of 5 days of treatment and 2 days of wash out, melphalan i.v at 3 mg/kg, once weekly for 8 weeks, and dexamethasone (DXH) at 6 mg/kg/inj 3 times/week for 2 consecutive weeks. There were 6-10 mice per treatment group. Statistical significance was calculated using Log-rank Graphpad Prism software and determined at ***p<0.001. (C) To study the ICAM-1 level on human cells, the cells from different organs were stained and gated for CD38+/mCD45−/B11+. Left panel indicates the percentage of B11 positive cells in CD38+/mCD45 population and right panel the mean fluorescent intensity of the positive cells.
The anti-myeloma effect of B11 was examined in a disseminated model of multiple myeloma. The early and advanced disseminated model of multiple myeloma was performed at Oncodesign, Dijon, France. Briefly: 1×10^6 (early) or 5×10^6 (advanced) ARH-77 tumor cells in 200 μL of RPMI 1640 were injected intravenously (i.v) into the caudal vein of female scid mice (D0). Tumor cell injections were performed twenty four to forty eight hours after a whole body irradiation of mice (1.8 Gy, ^60Co, INRA, BRETENNIERES). The treatment was started at D5 RPMI-8226 model or D7 (ARH-77 model) […]. B11 or control mAb was administered i.v. at 2 mg/kg, twice weekly for 8 weeks, bortezomib, at 1 mg/kg, once weekly for 8 weeks, lenalidomide p.o with 2 mg/kg for 2 cycles consisting of 5 days of treatment and 2 days of wash out, melphalan i.v. at 3 mg/kg, once weekly for 8 weeks, and dexamethasone at 6 mg/kg 1 injected 3 times a week for 2 consecutive weeks.
The disseminated model of scid/ARH-77 is a well-established experimental model that resembles human multiple myeloma disease progression and disease manifestation in many respects (33). We utilized this model to further characterize IgG B11 anti-myeloma activity (FIG. 6A). Intravenous injection of irradiated scid mice with 1×10^6 ARH-77 cells was previously shown to result in their dissemination and establishment in mouse bone-marrow, and resulting osteolytic bone-lesions and hypercalcemia, and ultimately, in animal paralysis or difficulty of breathing at which time animals were immediately sacrificed. […]

[2] = system: ICAM-1 on MM cells (CD38+/mCD45-); test: ICAM-1 expression on myeloma cells from treated mice (disseminated RPMI-8226 model, flow cytometry); format: in vivo, SCID mice; conditions: tumor cells isolated from mice treated with standard of care therapies
Experimental: Organs for FACS analysis were collected at scarification of mice, and cells from tissues were prepared by mechanistic dissociation and dispase/collagenase enzymatic digestion (Gibco, France). Cells were stained with anti-human CD38 antibody (PerCP-Cy5, Becton Dickinson), an anti-mouse CD45 (PE, Becton Dickinson) and human ICAM-1 (B11 IgG1 AF647, BioInvent) and incubated in the dark for 15 min at room temperature. After the incubation, cells were washed twice and the surface fluorescence of cells was analyzed with a flow cytometer apparatus (LSRII) at the Flow Cytometry Facility of the University of Burgundy.
200 μl containing 10×10^6 of RPMI 8226 tumour cells was intravenously injected into the caudal vein of female SCID mice. The mice had been subjected to a whole body irradiation of mice (1.8 Gy, ^60Co, BioMEP) 24 to 72 hours prior to cell injection. At D1, tumor injected mice were randomized according to their individual body weight. All treatment started day 5 after tumor cell administration except for ALKERAN®, which started at day 10. All treatments were injected in a dose volume of 10 ml/kg/inj. Mice received one of the following treatments:
The health status and behavior of mice was recorded every day and body weight of mice was recorded twice a week. […] Upon termination, bone marrow, spinal cord, adrenal glands and kidneys were collected and examined for ICAM-1 expression on tumor cells. To distinguish cells of human versus murine origin, an anti-mouse CD45 mAb was used CD45. […] In addition, cells were stained with AF647 conjugated anti ICAM-1 mAb and thereafter analyzed in a FACS LSRII. Bone marrow was mechanically dissociated to a single cell suspension whereas adrenal glands, kidneys and spinal cord cells were prepared using a combination of mechanistic dissociation and dispase/collagenase digestion (Gibco, France). Prior to the experiment, dispase and collagenase treatments were shown not to effect ICAM-1 levels on MM cell lines.

[3] = system: HUVEC and HMVEC endothelial cells; test: PCD in normal ICAM-1 expressing endothelial cells; format: cell-based; conditions: resting or activated HUVEC/HMVEC
Experimental: Target cells were seeded in 96-well culture plates at a density of 2×10^6 cells/mL culture medium. Titrated concentrations of IgG1 B11 or different negative and positive control antibodies were added to the cells, in the absence or presence of anti-human Fab fragment (Jackson ImmunoResearch) for cross-linking. The cells were then incubated for 16 hours at 37° C. in a humidified atmosphere of 5% CO2. The cells were harvested and stained for Annexin V-488/Propidium Iodide (Invitrogen, Sweden) and analysed using flow cytometer (FACS Calibur, BD Bioscience).

[4] = system: ICAM-1 expressing tumor cell lines; test: Complement-dependent cytotoxicity (CDC) in tumor cell lines; format: cell-based; conditions: panel of ICAM-1 expressing tumor cell lines
Experimental: Target cells were harvested and incubated in RPMI medium with antibodies at 5 μg/mL or at titrated concentrations between 0.01-100 μg/mL for 60 min on ice. Cells were thereafter washed and resuspended in cold medium before dispension into flow cytometry tubes. Treatments were performed in triplicates. Human serum, normal or heat-inactivated, (Sigma, Sweden) was added to tubes and the samples were incubated for 2 h at 37° C. After completed incubation ToPo-Pro-3 was added at a final concentration of 0.3 μM and cells were analyzed for membrane permeabilization using flow cytometry.

[5] = system: ARH-77 tumors; test: Advanced (established, palpable tumors) scid/ARH-77 xenograft model; conditions: IgG B11 effective even at 100-fold lower dose (0.2 mg/kg) than rituximab
Experimental: Mice were anaesthetized with a mixture of sevofluran and oxygen prior to myeloma cell inoculation and 1-5×10^6 myeloma cells were then subcutaneously injected in a volume of 100 μl into the left flank. Treatment with antibodies by intraperitonial (i.p.) injections was started either the day after cell inoculation (prophylactic model) or when tumors reached a size of approximately 100 mm^3 (established model). Antibodies were administrated in PBS in a total volume of 200 μL. Treatment with PBS or isotype control was used as control. Tumors were measured with a digital calliper and the tumor volumes were calculated according to formula: width^2×length×0.52. Animals were sacrificed when the tumor sizes reached the ethical limit of 1.5 cm. Surviving mice were sacrificed after a maximum of 5 months. Blood samples collected from the vena cava were centrifuged at 2500 g for 15 min to obtain serum and the samples were stored at −20° C. Tumors were removed for immunohistochemistry, snap frozen and were kept at −85° C.

[6] = system: ARH-77 cells; test: Subcutaneous scid/ARH-77 xenograft, treatment from the day after cell inoculation (prophylactic model); conditions: for anti-tumor activities of IgG B11 isotype switch variants (rank order): twice weekly treatment, s.c. ARH-77
Experimental: Tumor cells were injected subcutaneously into the left flank of SCID mice. Mice received twice-weekly intraperitoneal injections with B11, control antibody or rituximab at doses of 20, 2 and/or 0.2 mg/kg commencing one day after tumor cell inoculation. There were 8 to 10 animals per treatment group. (A) Tumor volume as a function of antibody dose. (B) Kaplan-Meier survival graph as a function of antibody dose. […] Statistical significance was calculated relative to control antibody treatment using Kruskal-Wallis Test (Nonparametric ANOVA) with Dunn's Multiple Comparisons Test (tumor volume) or the log-rank test (mouse survival) using Graphpad Instat or Prism software, respectively. Statistical significance was considered for *p<0.05, **p<0.01, and ***p<0.001.
Tumor cells were injected subcutaneously into the left flank of SCID mice. Mice received twice-weekly intraperitoneal injections with B11 at doses of 0.02-20 mg/kg commencing day after tumor cell inoculation. There were 8-10 animals per treatment group. (A) Tumor volume as a function of antibody dose. (B) Kaplan-Meier survival graph as a function of antibody dose. Statistical significance was calculated relative to control antibody treatment using Kruskal-Wallis Test (Nonparametric ANOVA) with Dunn's Multiple Comparisons Test (tumor volume) or the log-rank test (mouse survival) using Graphpad Instat or Prism software, respectively. Statistical significance was considered for *p<0.05, **p<0.01, and ***p<0.001. Graphs illustrate representative experiments out of several performed.
(A) ARH-77 cells were injected subcutaneously into the left flank of SCID mice (n=8 per group). Mice were treated with the different B11 isotypes twice weekly. […] Statistical significance was calculated relative to control antibody treatment using Kruskal-Wallis Test (Nonparametric ANOVA) with Dunn's Multiple Comparisons Test. Statistical significance was considered for *p<0.05, **p<0.01, and ***p<0.001.
Mice were anaesthetized with a mixture of sevofluran and oxygen prior to myeloma cell inoculation and 1-5×10^6 myeloma cells were then subcutaneously injected in a volume of 100 μl into the left flank. Treatment with antibodies by intraperitonial (i.p.) injections was started either the day after cell inoculation (prophylactic model) or when tumors reached a size of approximately 100 mm^3 (established model).

[7] = target: T1, human FcγRIIIa (Homo sapiens, UniProt P08637); test: B11 isotype variant binding to FcγR (Biacore), human FcγRIIIa
T1 construct: made in house; host or cells: HEK293E (transient, adherent)
T1 sequence (P08637 17-254): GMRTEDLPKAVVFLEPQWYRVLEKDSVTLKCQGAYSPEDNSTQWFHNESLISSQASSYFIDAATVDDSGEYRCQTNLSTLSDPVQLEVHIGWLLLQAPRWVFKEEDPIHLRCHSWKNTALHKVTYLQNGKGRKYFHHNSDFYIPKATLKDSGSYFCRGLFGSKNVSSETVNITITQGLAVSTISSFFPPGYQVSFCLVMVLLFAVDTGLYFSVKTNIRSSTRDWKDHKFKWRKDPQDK
Experimental: His-tagged human FcγRIIIa or mouse FcγRIV were expressed transient in adherent HEK293E cells, purified using Ni-NTA chromatography and characterized using SDS-PAGE and/or Biacore. Surface plasmon resonance (SPR) measurements were performed using a Biacore 3000 instrument. Goat α-human-F(ab)′2 F(ab)′2 fragment (Jackson laboratories) was immobilised with a CM-5 chip using a standard amine coupling protocol. IgG1 B11, IgG4 B11, or 297Q B11 were diluted to 15 and 60 μg/mL respectively and added to the surface at […] for 3 min. His tagged human FcγRIIIa or mouse FcγRIV were pre-incubated with an α-HIS antibody (R&D Systems) at a 2:1 molar ratio before addition to the chip surface, 30 μL/min, 1 min. After each cycle the surface was regenerated twice with glycine buffer pH 1.7.

[8] = system: B lymphoma cell line (CL-01); test: Antibody-dependent cell-mediated cytotoxicity (ADCC) with natural killer effector cells; format: cell-based; conditions: human Natural Killer effector cells
Source text: Buffy coats from human donors (ordered through Blodcentralen, Lund) were used to isolate peripheral blood mononuclear cells (PBMCs), and subsequently NK cells. Briefly, peripheral blood components were separated using Ficoll Paque PLUS (Amersham Biosciences, Sweden) in LeucoSep tubes (Greiner Bio-One). The PBMC fraction was removed and thoroughly washed in ice-cold DPBS (Invitrogen), before magnetic labeling and separation of the NK cell population using positive or negative NK cell isolation kits and MACS LS columns (Miltenyi Biotec). The purity of the obtained NK cell fractions was analyzed using flow cytometry, after staining with α-CD56 antibodies (BD Biosciences). Target cells were harvested, and incubated in medium with or without the respective antibodies (2 μg/mL) for 60 min on ice. Cells were thereafter washed and resuspended in cold medium before dispension into FACS tubes. Subsequently, isolated NK cells were diluted in ADCC medium and dispensed together with the respective antibody-coated target cells at varying effector/target cell ratios (40:1, 20:1, 5:1 and 1:1). All experiments were performed in triplicates. After completed incubation ToPo-Pro-3 dye and counting beads (Invitrogen) were added and cells were analyzed for membrane permeabilization using flow cytometry.

[9] = Serum antibody levels of treated xenografted mice (ELISA); format: in vivo; conditions: Dose 2 mg/kg; serum at end of experimentation
Experimental: We next performed a dose-titration experiment to establish IgG B11 in vivo potency and the minimal dose achieving maximal anti-tumor activity, using the scid/ARH-77 model system. […] Mouse serum antibody trough concentrations were determined by ELISA at the end of experimentation. Trough antibody concentrations were then plotted against percent of maximal in vivo anti-tumour activity, and against percent of maximal ICAM-1 receptor occupancy and tumour cell PCD at corresponding antibody concentrations in vitro (FIGS. 3C, 3D, 3E, 3F and 3G). Strikingly, a near perfect correlation between antibody concentration and in vitro tumour cell receptor occupancy, in vitro tumor cell PCD, and in vivo anti-tumour activity was observed, consistent with ICAM-1 dependent direct cell cytotoxicity underlying in vivo anti-tumour activity.

Molecule: CC(C)C[C@H](NC(=O)[C@H](Cc1ccccc1)NC(=O)c1cnccn1)B(O)O [bortezomib, reference compound]
- animal survival [1]: did not significantly enhance animal survival
- time to symptomatic disease onset [1]: insignificantly delayed disease onset
- ICAM-1 expression on tumor cells after treatment ([2]; listed as VELCADE®): still expressed at unchanged, high levels
- ICAM-1 expression on tumor cells after treatment ([2]; listed as bortesomib): retained

Molecule: Nc1cccc2c1CN(C1CCC(=O)NC1=O)C2=O (stereo not drawn) [lenalidomide]
- ICAM-1 expression on tumor cells after treatment ([2]; listed as Revlimid®): still expressed at unchanged, high levels
- ICAM-1 expression on tumor cells after treatment ([2]; listed as revlimid): retained

Molecule: N[C@@H](Cc1ccc(N(CCCl)CCCl)cc1)C(=O)O [melphalan]
- ICAM-1 expression on tumor cells after treatment ([2]; listed as AIKERAN®): still expressed at unchanged, high levels
- ICAM-1 expression on tumor cells after treatment ([2]; listed as alkeran): retained

Molecule: CC(=O)O[C@H]1C(=O)[C@@]2(C)[C@H]([C@H](OC(=O)c3ccccc3)[C@]3(O)C[C@H](OC(=O)[C@H](O)[C@@H](NC(=O)c4ccccc4)c4ccccc4)C(C)=C1C3(C)C)[C@]1(OC(C)=O)CO[C@@H]1C[C@@H]2O [paclitaxel, reference compound]
- programmed cell death of normal endothelial cells [3]: induced significant endothelial cell and B cell programmed cell death

Molecule: rituximab [reference compound]
- induction of CDC [4]: effectively induced CDC
- animal survival [5]: incapable of reducing tumor growth or promoting animal survival
- tumor growth [5]: incapable of reducing tumor growth
- tumor growth ([6]; 20 mg/kg twice weekly i.p., commencing one day after tumor cell inoculation): significant anti-tumor activity albeit less efficaciously so compared to IgG B11

B1: 297Q B11: FcγR-binding deficient mutant IgG1 (N297Q IgG1) isotype switch variant of B11 (antibody, V domains shown)
VH: EVQLLESGGGLVQPGGSLRLSCAASGFTFSNAWMSWVRQAPGKGLEWVAFIWYDGSNKYYADSVKGRFTISRDNSKNTLYLQMNSLRAEDTAVYYCARYSGWYFDYWGQGTLVTVSS
VL: QSVLTQPPSASGTPGQRVTISCTGSSSNIGAGYDVHWYQQLPGTAPKLLIYDNNNRPSGVPDRFSGSKSGTSASLAISGLRSEDEADYYCQSYDSSLSAWLFGGGTKLTVLG
- binding to human FcγRIIIa [7]: did not bind to human FcγRIIIa
- ADCC of target tumor cells [8]: did not mediate ADCC of target tumor cells
- In vivo IgG Levels [9]: 9.6 ± 3. μg/mL
- anti-tumor activities of IgG B11 isotype switch variants (rank order) [6]: increased in the order of IgG1N297Q<IgG4<IgG1

B2: IgG4 B11: human IgG4 isotype switch variant of B11 (antibody, V domains shown)
VH: B1 VH
VL: B1 VL
- binding to human FcγRIIIa [7]: did not bind to human FcγRIIIa
- ADCC of target tumor cells [8]: did not mediate ADCC of target tumor cells
- In vivo IgG Levels [9]: 13 ± 3.1 µg/mL
- anti-tumor activities of IgG B11 isotype switch variants (rank order) [6]: increased in the order of IgG1N297Q<IgG4<IgG1
